ChEMBL document CHEMBL3039007, “Structure-based identification of OATP1B1/3 inhibitors” (Mol Pharmacol, 2013)

Key:
[1] = biological target: T1, Solute carrier organic anion transporter family member 1B1 (Homo sapiens, UniProt Q9Y6L6); conditions: chinese hamster, cho, 10 µM
T1 sequence (Q9Y6L6 whole entry): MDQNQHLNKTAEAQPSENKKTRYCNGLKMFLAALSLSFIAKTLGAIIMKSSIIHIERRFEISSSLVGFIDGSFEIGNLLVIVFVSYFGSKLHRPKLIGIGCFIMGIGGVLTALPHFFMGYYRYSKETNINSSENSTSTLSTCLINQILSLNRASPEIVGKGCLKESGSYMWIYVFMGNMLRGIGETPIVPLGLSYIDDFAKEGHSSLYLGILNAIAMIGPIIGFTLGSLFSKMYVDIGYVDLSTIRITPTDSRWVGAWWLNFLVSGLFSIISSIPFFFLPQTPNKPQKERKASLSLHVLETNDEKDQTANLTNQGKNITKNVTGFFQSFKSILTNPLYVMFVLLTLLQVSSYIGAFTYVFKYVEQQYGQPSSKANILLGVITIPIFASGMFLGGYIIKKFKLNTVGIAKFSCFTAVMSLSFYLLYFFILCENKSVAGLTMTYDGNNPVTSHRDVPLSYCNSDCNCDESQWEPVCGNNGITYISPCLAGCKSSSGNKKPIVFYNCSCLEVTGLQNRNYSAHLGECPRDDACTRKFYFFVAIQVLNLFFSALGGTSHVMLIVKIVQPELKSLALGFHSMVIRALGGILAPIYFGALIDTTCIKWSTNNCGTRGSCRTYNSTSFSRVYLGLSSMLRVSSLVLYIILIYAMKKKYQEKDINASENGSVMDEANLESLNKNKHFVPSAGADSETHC

[2] = biological target: T2, Solute carrier organic anion transporter family member 1B3 (Homo sapiens, UniProt Q9NPD5); conditions: chinese hamster, cho, 10 µM
T2 sequence (Q9NPD5 whole entry): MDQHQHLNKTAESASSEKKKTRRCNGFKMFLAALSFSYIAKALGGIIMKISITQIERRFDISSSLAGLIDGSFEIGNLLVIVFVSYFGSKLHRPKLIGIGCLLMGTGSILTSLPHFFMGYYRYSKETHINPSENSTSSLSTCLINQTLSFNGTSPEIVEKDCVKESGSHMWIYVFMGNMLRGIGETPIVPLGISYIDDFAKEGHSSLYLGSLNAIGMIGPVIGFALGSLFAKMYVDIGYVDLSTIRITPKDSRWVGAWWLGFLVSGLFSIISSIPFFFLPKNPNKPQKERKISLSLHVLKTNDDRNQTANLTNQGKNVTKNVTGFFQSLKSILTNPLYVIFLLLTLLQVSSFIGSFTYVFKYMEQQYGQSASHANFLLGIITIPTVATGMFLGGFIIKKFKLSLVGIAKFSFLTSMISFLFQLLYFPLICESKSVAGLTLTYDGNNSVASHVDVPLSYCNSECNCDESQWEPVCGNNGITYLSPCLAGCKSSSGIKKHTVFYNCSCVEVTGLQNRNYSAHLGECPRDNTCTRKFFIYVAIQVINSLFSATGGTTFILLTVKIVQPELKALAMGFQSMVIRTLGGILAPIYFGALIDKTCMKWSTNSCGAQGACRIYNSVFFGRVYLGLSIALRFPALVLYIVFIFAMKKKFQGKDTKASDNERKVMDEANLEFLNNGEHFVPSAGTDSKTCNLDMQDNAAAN

| Structure (SMILES) | residual activity [1] [%] | residual activity [2] [%] |
| --- | --- | --- |
| CS(=O)(=O)CCCCN=C=S [ERYSOLIN] | 108.6 | 72.62 |
| NCC[C@H](O)C(=O)N[C@@H]1C[C@H](N)[C@@H](O[C@H]2O[C@H](CN)[C@@H](O)[C@H](O)[C@H]2O)[C@H](O)[C@H]1O[C@H]1O[C@H](CO)[C@@H](O)[C@H](N)[C@H]1O.O=S(=O)(O)O | 72.99 | 92.21 |
| COC1=C[C@@H]2[C@@H]3Cc4ccc(OC)c(O)c4[C@]2(CCN3C)CC1=O [SINOMENINE] | 105.5 | 68.46 |
| C/C=C(\C)C(=O)O[C@@H]1[C@@H]2C=C3[C@@H]4CC(=O)O[C@@H](c5ccoc5)[C@]4(C)CC[C@@H]3[C@@](C)(C2=O)[C@@H]([C@@H](O)C(=O)OC)C1(C)C [SWIETENINE] | 14.03 | 69.9 |
| CC(=O)[C@H]1CC[C@H]2[C@@H]3CC[C@@H]4C[C@H](O)CC[C@]4(C)[C@H]3C[C@H](O)[C@]12C | 97.69 | 117.8 |
| CN1CCN(C2=Nc3cc(Cl)ccc3Nc3ccccc32)CC1 [CLOZAPINE] | 86.29 | 93.38 |
| C[C@@H]1O[C@@H](O[C@H]2[C@H](Oc3cc(O)c4c(=O)cc(-c5ccc(O)cc5)oc4c3)O[C@H](CO)[C@@H](O)[C@@H]2O)[C@H](O)[C@H](O)[C@H]1O [RHOIFOLIN] | 101.7 | 203.1 |
| CC(=O)Oc1cccc(O)c1 [RESORCINOL MONOACETATE] | 102.7 | 68.79 |
| CCCCCCCCCCCCCCCCCCOCC(O)CO (stereo unspecified) [BATILOL] | 92.94 | 108.3 |
| COc1ccc(C(=O)/C=C/c2ccccc2)cc1 [4'-METHOXYCHALCONE] | 100.4 | 93.51 |
| CC(C)=CCc1c(O)cc(C)oc1=O [2-ISOPRENYL-3-HYDROXY-5-METHYL-a-PYRONE] | 101.1 | 115.1 |
| COc1cc2c(cc1O)C[C@H]1c3c(cc(O)c(OC)c3-2)CCN1C [BOLDINE] | 47.95 | 100.1 |
| O=C1c2c(O)cccc2C([C@@H]2O[C@H](CO)[C@@H](O)[C@H](O)[C@H]2O)c2cc(CO)cc(O)c21 (stereo partly specified) [ALOIN] | 48.46 | 66.8 |
| CNc1ccccc1C(=O)N1CCc2c([nH]c3ccccc23)C1=O [RHETSININE] | 102 | 98.18 |
| CC(CCc1ccccc1)NC(C)C(O)c1ccc(O)cc1.Cl (stereo unspecified) [NYLIDRIN HYDROCHLORIDE] | 112.1 | 116.9 |
| C=CCN1CC[C@]23c4c5ccc(O)c4O[C@H]2C(=O)CC[C@@]3(O)[C@H]1C5.Cl [NALOXONE HYDROCHLORIDE] | 111.5 | 113.7 |
| Oc1cc(O)c2c(c1)O[C@H](c1cc(O)c(O)c(O)c1)[C@H](O)C2 [EPIGALLOCATECHIN] | 101.7 | 96.72 |
| O=c1ccc2ccc(O)cc2o1 [UMBELLIFERONE] | 26.71 | 76.49 |
| C[n+]1cc2c3c(ccc2c2ccc4cc5c(cc4c21)OCO5)OCO3.O=S(=O)([O-])O [SANGUINARINE SULFATE] | 134.6 | 92.42 |
| Cc1occc(=O)c1O [MALTOL] | 79.28 | 74.61 |
| NC(=O)c1ncn([C@@H]2O[C@H](CO)[C@@H](O)[C@H]2O)c1O [MIZORIBINE] | 113.4 | 100.4 |
| CC1(C)C=Cc2cc3ccc(=O)oc3cc2O1 [XANTHYLETIN] | 75.53 | 85.95 |

| Structure (SMILES) | residual activity [1] [%] | residual activity [2] [%] |
| --- | --- | --- |
| Cc1cccc(C)c1NC(=O)C1CCCCN1C.Cl (stereo unspecified) [MEPIVACAINE HYDROCHLORIDE] | 96.31 | 96.16 |
| CCC[C@H]1CCCCN1 [CONIINE] | 105.3 | 100.1 |
| Nc1ccc(S(=O)(=O)[N-]c2cnc3ccccc3n2)cc1.[Na+] [SULFAQUINOXALINE SODIUM] | 73.75 | 102.9 |
| COc1ccc(C(=O)O)cc1OC [VERATRIC ACID] | 111.3 | 106.9 |
| OCC(O)CN1CCN(c2ccccc2)CC1 (stereo unspecified) [DROPROPIZINE] | 71.05 | 96.03 |
| CCC(=O)OCC(=O)[C@@]1(OC(=O)CC)[C@@H](C)C[C@H]2[C@@H]3CCC4=CC(=O)C=C[C@]4(C)[C@@]3(Cl)[C@@H](O)C[C@@]21C [BECLOMETHASONE DIPROPIONATE] | 41.53 | 14.78 |
| O=C(/C=C/c1ccccc1)c1ccc(O)cc1 [4'-HYDROXYCHALCONE] | 132.2 | 130.5 |
| COc1c(Cl)c(C)c2c(c1Cl)OC(=O)c1c(C)c(Cl)c(OC)c(Cl)c1O2 [DIPLOICIN METHYL ETHER] | 97.17 | 103.5 |
| CC[C@]12CCCN3CCc4c(n(c5ccccc45)[C@@](O)(C(=O)OC)C1)[C@@H]32 [VINCAMINE] | 72.87 | 88.88 |
| Cl.N=C(N)NC(=N)Nc1ccccc1 [1-PHENYLBIGUANIDE HYDROCHLORIDE] | 80.12 | 94.41 |
| COc1ccc(CC2c3cc(OC)c(OC)cc3CCN2C)cc1OC (stereo unspecified) [LAUDANOSINE] | 107.4 | 114.7 |
| COc1cc2c(cc1OC)C(=O)c1ccc(OC)c(OC)c1OCC(=O)C2 [HAEMATOXYLONE, TETRAMETHYL-] | 141.3 | 90.54 |
| COC(=O)C[C@H]1C(C)(C)[C@@H](O)[C@@H]2CC3=C4CC(O)O[C@@H](c5ccoc5)[C@]4(C)CCC3[C@@]1(C)C2=O (stereo partly drawn) [3,16-DIDEOXYMEXICANOLIDE-3beta-DIOL] | 51.44 | 53.76 |
| O=[N+]([O-])c1cccc2cn[nH]c12 [7-NITROINDAZOLE] | 147.5 | 106.1 |
| NCC(CC(=O)O)c1ccc(Cl)s1 (stereo unspecified) [4-AMINO-3- (5-CHLOROTHIEN-2-YL)BUTANOIC ACID] | 116.9 | 99.7 |
| COc1ccc(-c2c(O)c3c(OC)c4c(cc3oc2=O)OC(C)(C)CC4)cc1 [DIHYDROROBUSTIC ACID] | 73.61 | 70.94 |
| Cc1cc(=O)c2c(O)c3c(cc2o1)OC(C)(C)CC3 [DIHYDROSPATHELIACHROMENE] | 127.1 | 116.8 |
| Oc1cc(O)cc(/C=C/c2ccccc2)c1 [PINOSYLVIN] | 133.5 | 114.6 |
| CNC(=N)NCCC[C@H](N)C(=O)O [TILARGININE] | 94.97 | 97.33 |
| CC(C)CCC[C@@H](C)[C@H]1CC[C@H]2[C@@H]3CC[C@H]4CC(=O)CC[C@]4(C)[C@H]3CC[C@]12C [CHOLESTAN-3-ONE] | 74.43 | 73.06 |
| COc1cc([C@@H]2c3cc4c(cc3[C@@H](O)[C@H]3COC(=O)[C@H]23)OCO4)cc(OC)c1O [4'-DEMETHYLEPIPODOPHYLLOTOXIN] | 42.52 | 69.62 |
